This note sets out measurements from patent US9403874B2, “Peptides and use thereof” (IL YANG PHARM. CO.,LTD., priority 2012, dated 2016).

The subject of one assay is IL-5. As to the kind of experiment: Reduction of IL-5 secretion in activated B cells (ELISA). Conditions: 100 ng/me of peptide; EBV-infected B cells stimulated with anti-CD150; ELISA of culture supernatant. It is filed as cell-based. As for the experimental part:
(§1) In order to determine the activity of the novel peptides synthesized in Example 1 for reducing the secretion of inflammatory cytokines, the activated pathogenic B cells were treated with each of the 18 types of synthesized novel peptides and the reduction in secretion of inflammatory cytokines from the B cells was monitored.
(§2) Specifically, in order to determine whether the novel peptides could weaken the pathogenic B cells which are involved in the development of disease symptoms, the in vitro B cells model which is similar to the joint infiltrative B cells of rheumatoid arthritis was used. The activated pathogenic B cell was generated by stimulating Ebstein Barr virus (EBV)-infected B cells with anti-CD150 antibodies, and the cells were treated with […] of each of the 18 types of novel peptide.
(§3) In order to confirm the effect of 18 types of novel peptides in reducing inflammatory cytokines, the secretion amount of various cytokines (IL-1A, IL-1B, IL-2, IL-4, IL-5, IL-6, IL-8, IL-10, IL-12A, IL-13, IL-17A, GM-CSF, IL-34) secreted from the activated B cells was measured. The supernatants of B cell culture were analyzed enzyme-linked immunosorbent assay (ELISA), and the difference in absorbance (450 nm-570 nm) of the color developing reagent was measured as test results. Based on the measured difference in absorbance (450 nm-570 nm) of the color developing reagent, the absorbance of cytokines secreted when treated with the 18 types of novel […] was calculated in percentage, while setting the absorbance corresponding to the cytokines secreted from the activated B cells stimulated by anti-CD150 as 100%.

The test system of a further assay is IL-6. As to the kind of experiment: Reduction of IL-6 secretion in activated B cells (ELISA). In kind it is cell-based. As to conditions: 100 ng/me of peptide; EBV-infected B cells stimulated with anti-CD150; ELISA of culture supernatant. As for the experimental part:
as §1, §2, §3
(In general: ELISA stands for enzyme-linked immunosorbent assay.)

For a further assay, the system named is IL-12A. As to the kind of experiment: Reduction of IL-12A secretion in activated B cells (ELISA). In kind it is cell-based. Conditions: 100 ng/me of peptide; EBV-infected B cells stimulated with anti-CD150; ELISA of culture supernatant. As for the experimental part:
as §1, §2, §3

In a further assay the test system is GM-CSF. As to the kind of experiment: Reduction of GM-CSF secretion in activated B cells (ELISA). It is filed as cell-based. As to conditions: 100 ng/me of peptide; EBV-infected B cells stimulated with anti-CD150; ELISA of culture supernatant. Here is the method: as §1, §2, §3
The subject of assay [1] is collagen-induced arthritis mouse model. Briefly: Collagen-induced arthritis mouse model. It is filed as in vivo. As for the experimental part:
In order to investigate the therapeutic effect of the peptide SIS-1, which is a representative peptide of the 18 types of novel peptides prepared in Example 1 against a representative autoimmune disease, arthritis, the experiment was performed using the collagen-induced arthritis mouse model of the literature (Nature, 283, pp 666-668, 1980; Arthritis Rheum, 46, pp 793-801, 2002).
The collagen-induced arthritis (CIA) is the model with arthritis of autoimmune disease type having similar characteristics as human rheumatoid arthritis and it was prepared by the following method.
The 100 μg of bovine type II collagen (Chondrex four, United States) was emulsified by mixing it with Freund's complete adjuvant (Chondrex, USA), and 7-week-old DBA/1 mouse ([…], male, central laboratory animals, Korea) was immunized by injecting the emulsified collagen solution intradermally at the tail region. On the 14th day of the first immunization, 50 μg of bovine type II collagen (Chondrex four, United States) was emulsified by mixing it with Freund's complete adjuvant (Chondrex, USA), and the second immune (boosting) response was induced by injecting the same intradermally at the tail region.
The novel peptide SIS-1 and a control drug, dexamethasone (DEX), were intraperitoneally administered three times a week from the next day of inducing the second immune response, and the control group (CIA) was treated with PBS.
In order to monitor the development of arthritis, the thickness of foot was measured using loop handle thickness gauge (Mitutoyo) while observing the weight change and the level of pathogenesis. In addition, the severity of the joint inflammation was assessed three times a week by two observers without knowing the contents of the experiment. Assessment of arthritis was performed by adding the scores for four legs per one mouse according to the following criteria, based on the arthritis progression index by Rossoliniec, et al. and then by taking the average of the values measured by two observers. The score and criteria for assessing arthritis are as follows:
0 point: no edema or swelling
1 point: mild edema and redness confined to foot or ankle joint
2 points: mild edema and redness in ankle joint through metatarsal
3 points: moderate edema and redness in ankle joint through metatarsal
4 points: edema and redness through the whole leg, and appearance of acampsia
The maximum arthritis index is 4 points per leg, and the maximum disease index per mouse is 16.
In order to determine the damage in the cartilage of joints, the histological examination was performed after completion of the test. On the 9th week of the animal model test, after the test animal was killed, the hind leg of the mouse hind was fixed with 10% formalin and coated with paraffin after removing compounds of calcium from the bones. Joint section was prepared and stained with hematoxylin and eosin.

The test system of assay [2] is antibodies specific to bovine type II collagen. Briefly: Serological analysis in collagen-induced arthritis mice (ELISA). Conditions: serum of CIA mice. It is filed as in vivo, mouse. Here is the method: In order to determine the therapeutic effect of the novel peptide SIS-1 for arthritis, enzyme-linked immunosorbent assay (ELISA) was performed to measure the antibodies specific to bovine type II collagen with the serological test. As mentioned in the literature, IgG antibody, known as the rheumatoid factor (RF), or subtype of IgG (IgG1 and IgG2a) and IgM autoantibody are known to form immune complexes, cause inflammation, and develop the lesions of rheumatoid arthritis (Journal of Ethnopharmacology 112 (2007) 408).
After diluting the serum of each test group in a ratio of 1:25000 (IgG) or 1:10000 (IgG1, IgG2a, IgM), the titer of serum autoantibody specific to type II collagen was measured.

The test system of the next assay is IL-4. Briefly: Reduction of IL-4 secretion in activated B cells (ELISA). In kind it is cell-based. Conditions: 100 ng/me of peptide; EBV-infected B cells stimulated with anti-CD150; ELISA of culture supernatant. As for the experimental part: as §1, §2, §3
Another assay has as its system IL-10. As to the kind of experiment: Reduction of IL-10 secretion in activated B cells (ELISA). It is filed as cell-based. Conditions: 100 ng/me of peptide; EBV-infected B cells stimulated with anti-CD150; ELISA of culture supernatant. Here is the method:
as §1, §2, §3

The next assay deals with IL-2. Briefly: Reduction of IL-2 secretion in activated B cells (ELISA). In kind it is cell-based. Conditions: 100 ng/me of peptide; EBV-infected B cells stimulated with anti-CD150; ELISA of culture supernatant. As for the experimental part:
as §1, §2, §3

Another assay relates to IL-1B. As to the kind of experiment: Reduction of IL-1B secretion in activated B cells (ELISA). It is filed as cell-based. Conditions: 100 ng/me of peptide; EBV-infected B cells stimulated with anti-CD150; ELISA of culture supernatant. Here is the method: as §1, §2, §3
The subject of the next assay is IL-8. Briefly: Reduction of IL-8 secretion in activated B cells (ELISA). In kind it is cell-based. As to conditions: 100 ng/me of peptide; EBV-infected B cells stimulated with anti-CD150; ELISA of culture supernatant. Here is the method:
as §1, §2, §3

The test system of another assay is IL-13. As to the kind of experiment: Reduction of IL-13 secretion in activated B cells (ELISA). In kind it is cell-based. As to conditions: 100 ng/me of peptide; EBV-infected B cells stimulated with anti-CD150; ELISA of culture supernatant. Here is the method: as §1, §2, §3
In assay [3] the test system is TPA-induced ear edema mouse model. As to the kind of experiment: TPA-induced ear edema mouse model. It is filed as in vivo. As to conditions: 6 hours after TPA application, intraperitoneal, twice. The text has this: The present inventors confirmed that the peptides of the present invention are effective in alleviating inflammation invivo, along with reduction of the secretion of inflammatory cytokines as confirmed in Example 2. To be specific, in order to identify the anti-inflammatory effect of the peptide SIS-1, which is a representative peptide of 18 types of novel peptides prepared in Example 1, the present inventors used the method for evaluating the mouse ear edema wherein 12-O-tetradecanoylphorbol-13-acetate (TPA) induces acute inflammation as described in the literature (Eur J Pharmacol. 2011: 15; 672(1-3):175-179).
The TPA-induced ear edema mouse model is an animal model where erythema and edema caused by acute inflammation can be observed and it was prepared by the following method. The 24 mice of 5-week-old ICR mouse ([…], mal, central laboratory animals, Korea) were divided into 6 mice per group, and their hairs of both ears were removed before applying the sample. […]
The anti-inflammatory effect of the peptide SIS-1 was determined by observing the degree of edema inhibition as compared to the control group injected with vehicle. After 6 hours of TPA application, pictures of both ears were taken to determine the degree of ear edema, and the degree of inflammation alleviated was determined by measuring the thickness and weight per certain area of ear.

A further assay concerns IL-1A. Briefly: Reduction of IL-1A secretion in activated B cells (ELISA). In kind it is cell-based. Conditions: 100 ng/me of peptide; EBV-infected B cells stimulated with anti-CD150; ELISA of culture supernatant. As for the experimental part:
as §1, §2, §3

In another assay the test system is IL-34. Briefly: Reduction of IL-34 secretion in activated B cells (ELISA). Conditions: 100 ng/me of peptide; EBV-infected B cells stimulated with anti-CD150; ELISA of culture supernatant. In kind it is cell-based. Here is the method:
as §1, §2, §3

The subject of another assay is IL-17A. Briefly: Reduction of IL-17A secretion in activated B cells (ELISA). In kind it is cell-based. As to conditions: 100 ng/me of peptide; EBV-infected B cells stimulated with anti-CD150; ELISA of culture supernatant. Here is the method: as §1, §2, §3

Turning to MSLPSPRDGRTDGRTDCTR (SIS-1 peptide), in the assay with IL-5, the “Inhibition rate of each cytokine compared to CD150-stimulated EBV-t B cells (%) IL-5” value was determined as 30.3%. In addition, in the assay with IL-6, the “Inhibition rate of each cytokine compared to CD150-stimulated EBV-t B cells (%) IL-6” value was 42.9%. The “Inhibition rate of each cytokine compared to CD150-stimulated EBV-t B cells (%) IL-12A” value in the assay with IL-12A is 43.5%. Also, the “Inhibition rate of each cytokine compared to CD150-stimulated EBV-t B cells (%) GM-CSF” value in the assay on GM-CSF is listed as 60.5%. Moreover, the “onset of disease symptom” value in assay [1] (after second immunization, versus CIA group) is on record as “delayed”. Further, in assay [1] (after second immunization, intraperitoneal three times a week), the mouse weight result is given as “maintained similar to that of Normal group”. Besides, the incidence of arthritis in assay [1] (by the end of the test, intraperitoneal three times a week) was 87.5%. Moreover, in assay [1] (compared to the CIA group), the arthritis progression index entry was “reduced” and the “swelling of ankle joints” value is on record as “reduced”. In assay [1] (hind leg joint sections, 9th week), the “destruction of joints and cartilage (histology, hematoxylin and eosin)” value is listed as “maintained at similar level as the normal mice”. The “reduction of autoantibodies compared with control drug DEX” value in [2] is “as effective as or superior than”. For the same sequence, the “Inhibition rate of each cytokine compared to CD150-stimulated EBV-t B cells (%) IL-4” value in the assay on IL-4 is reported as 59.9%. The “Inhibition rate of each cytokine compared to CD150-stimulated EBV-t B cells (%) IL-10” value in the assay with IL-10 worked out at 47.6%. In addition, the “Inhibition rate of each cytokine compared to CD150-stimulated EBV-t B cells (%) IL-2” value in the assay with IL-2 is reported as 19.7%. In the assay on IL-1B, the “Inhibition rate of each cytokine compared to CD150-stimulated EBV-t B cells (%) IL-1B” value is 25.4%. In the assay with IL-8, the “Inhibition rate of each cytokine compared to CD150-stimulated EBV-t B cells (%) IL-8” value is reported as 53.8%. Besides, the “Inhibition rate of each cytokine compared to CD150-stimulated EBV-t B cells (%) IL-13” value with IL-13 amounted to 37.6%. Moreover, in [3], the “erythema increased by TPA application” value is “reduced”; the “inflammatory response (thickness and weight of ear increased by TPA edema)” value is listed as “inhibited significantly”. Besides, in the assay on IL-1A, the “Inhibition rate of each cytokine compared to CD150-stimulated EBV-t B cells (%) IL-1A” value worked out at 22.7%. Besides, in the assay with IL-34, the “Inhibition rate of each cytokine compared to CD150-stimulated EBV-t B cells (%) IL-34” value is 43.4%. Further, the “Inhibition rate of each cytokine compared to CD150-stimulated EBV-t B cells (%) IL-17A” value in the assay on IL-17A was determined as 63.6%.
